Assays:
human DLK [1] = biological target: T1, human DLK (Homo sapiens, UniProt Q12852); assay: DLK Kd Determinations (KINOMEscan KdELECT, DiscoveRx); set-up: full length of human DLK (amino acids 1-859); host or cells: transiently transfected HEK293 cells; unpurified extract; settings: fusion protein of full length human DLK (amino acids 1-859) and NFkB DNA binding domain; qPCR readout; duplicate
T1 sequence (Q12852 1-859): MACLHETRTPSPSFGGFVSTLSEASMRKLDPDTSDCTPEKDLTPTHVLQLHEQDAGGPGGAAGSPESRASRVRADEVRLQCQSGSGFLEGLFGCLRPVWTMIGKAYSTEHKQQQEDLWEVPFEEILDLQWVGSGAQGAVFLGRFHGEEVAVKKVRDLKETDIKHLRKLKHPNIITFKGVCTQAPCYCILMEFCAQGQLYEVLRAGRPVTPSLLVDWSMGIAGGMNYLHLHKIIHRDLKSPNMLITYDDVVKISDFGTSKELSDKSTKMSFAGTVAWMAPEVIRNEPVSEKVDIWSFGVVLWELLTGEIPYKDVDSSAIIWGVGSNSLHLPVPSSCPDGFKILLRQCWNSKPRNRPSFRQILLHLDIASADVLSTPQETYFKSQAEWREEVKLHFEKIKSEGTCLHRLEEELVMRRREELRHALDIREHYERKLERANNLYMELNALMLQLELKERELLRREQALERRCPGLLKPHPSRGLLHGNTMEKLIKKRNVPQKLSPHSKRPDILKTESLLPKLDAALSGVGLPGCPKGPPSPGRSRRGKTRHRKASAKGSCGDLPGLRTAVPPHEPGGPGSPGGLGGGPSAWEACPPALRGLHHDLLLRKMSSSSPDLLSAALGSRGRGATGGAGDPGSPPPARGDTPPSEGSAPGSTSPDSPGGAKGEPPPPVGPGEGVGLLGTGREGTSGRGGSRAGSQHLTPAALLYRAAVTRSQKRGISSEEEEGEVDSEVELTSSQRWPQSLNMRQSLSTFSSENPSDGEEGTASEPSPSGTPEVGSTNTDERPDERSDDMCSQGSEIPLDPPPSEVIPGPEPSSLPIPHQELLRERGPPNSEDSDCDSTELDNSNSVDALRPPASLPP
How it was run: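 Kd values were fitted by Hill equation (slope −1) from duplicate 11-point 3-fold dilutions starting at 30,000 nM. Bead-immobilized ligand competed with compound for DNA-tagged full-length human DLK fusion in HEK293 extract (final DMSO 0.9%, 1 h, room temperature), with qPCR readout of bound kinase.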

human DLK [2] = biological target: T1, human DLK; assay: Phospho-cJun Cellular Assay; format: cell-based; set-up: expressed in transfected cells; settings: HEK293 cells stably transfected with Dox-inducible human DLK; p-cJun (Ser63); 5 h compound incubation
How it was run: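 HEK293 cells with doxycycline-induced human DLK (induced 20 h; uninduced cells as negative control) treated with compound for 5 h at 37 °C. Phospho-cJun (Ser63) measured in lysates with detection-antibody kit; IC50 from variable-slope dose-response fit.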

Compound: Nc1ncc(-c2cn([C@H]3[C@@H]4CN(C5CCOCC5)C[C@@H]43)c(CC3CC3)n2)cc1OC(F)(F)F [Example 97, 5-(2-(cyclopropylmethyl)-1-((1R,5S,6s)-3-(tetrahydro-2H-pyran-4-yl)-3-azabicyclo[3.1.0]hexan-6-yl)-1H-imidazol-4-yl)-3-(trifluoromethoxy)pyridin-2-amine]
- Kd (human DLK [1]): 0.057 µM
- IC50 (human DLK [2]): 1.9 µM

Compound: Nc1ncc(-c2cn3c(n2)C(C2CC2)N(C2COC2)CC3)cc1C(F)(F)F (centres unmarked) [Example 4, 5-[8-cyclopropyl-7-(oxetan-3-yl)-5H,6H,7H,8H-imidazo[1,2-a]pyrazin-2-yl]-3-(trifluoromethyl)pyridin-2-amine]
- Kd (human DLK [1]): 0.39 µM
- IC50 (human DLK [2]): 14.8 µM

Compound: CN1CCN(C2C[C@@H]3[C@H](C2)[C@H]3n2cc(-c3cnc(N)c(C(F)(F)F)c3)nc2CC2CC2)CC1 (single isomer, unassigned) [Example 161a, 5-(2-(cyclopropylmethyl)-1-(3-(4-methylpiperazin-1-yl)bicyclo[3.1.0]hexan-6-yl)-1H-imidazol-4-yl)-3-(trifluoromethyl)pyridin-2-amine]
- Kd (human DLK [1]): 0.019 µM
- IC50 (human DLK [2]): 0.454 µM

Compound: CC(C)Cc1nc(-c2cnc(N)c(C(F)(F)F)c2)cn1[C@H]1[C@@H]2CC(N3CCN(CCF)CC3)C[C@@H]21 (single isomer, unassigned) [Example 160b, 5-(1-(3-(4-(2-fluoroethyl)piperazin-1-yl)bicyclo[3.1.0]hexan-6-yl)-2-isobutyl-1H-imidazol-4-yl)-3-(trifluoromethyl)pyridin-2-amine]
- Kd (human DLK [1]): 0.0087 µM
- IC50 (human DLK [2]): 0.775 µM

Compound: Nc1ncc(-c2cn([C@H]3[C@@H]4CC(N5CCN(CCF)CC5)C[C@@H]43)c(CC3CC3)n2)cc1C(F)(F)F (single isomer, unassigned) [Example 162b, 5-(2-(cyclopropylmethyl)-1-(3-(4-(2-fluoroethyl)piperazin-1-yl)bicyclo[3.1.0]hexan-6-yl)-1H-imidazol-4-yl)-3-(trifluoromethyl)pyridin-2-amine]
- Kd (human DLK [1]): 0.0056 µM
- IC50 (human DLK [2]): 0.769 µM

Compound: CC(C)c1nc(-c2cnc(N)c(C(F)(F)F)c2)cn1[C@H]1[C@@H]2CC(N3CCN(CCF)CC3)C[C@@H]21 (single isomer, unassigned) [Example 155a, 5-(1-(3-(4-(2-fluoroethyl)piperazin-1-yl)bicyclo[3.1.0]hexan-6-yl)-2-isopropyl-1H-imidazol-4-yl)-3-(trifluoromethyl)pyridin-2-amine]
- Kd (human DLK [1]): 0.023 µM
- IC50 (human DLK [2]): 1.19 µM

Compound: CN1CCN(C2C[C@@H]3[C@H](C2)[C@H]3n2cc(-c3cnc(N)c(OC(F)(F)F)c3)nc2C2CC2)CC1 (some centres unmarked) [Example 135, 5-(2-cyclopropyl-1-(3-(4-methylpiperazin-1-yl)bicyclo[3.1.0]hexan-6-yl)-1H-imidazol-4-yl)-3-(trifluoromethoxy)pyridin-2-amine]
- Kd (human DLK [1]): 0.017 µM
- IC50 (human DLK [2]): 0.346 µM

Compound: CC(C)c1nc(-c2cnc(N)c(C(F)(F)F)c2)cn1[C@H]1[C@@H]2CC(O)C[C@@H]21 (single isomer, unassigned) [Example 48a, 6-(4-(6-amino-5-(trifluoromethyl)pyridin-3-yl)-2-isopropyl-1H-imidazol-1-yl)bicyclo[3.1.0]hexan-3-ol]
- Kd (human DLK [1]): 0.084 µM
- IC50 (human DLK [2]): 1.59 µM

Compound: CN1CCN(C2C[C@@H]3[C@H](C2)[C@H]3n2cc(-c3cnc(N)c(OC(F)(F)F)c3)nc2CC2CC2)CC1 (single isomer, unassigned) [Example 151a, 5-(2-(cyclopropylmethyl)-1-(3-(4-methylpiperazin-1-yl)bicyclo[3.1.0]hexan-6-yl)-1H-imidazol-4-yl)-3-(trifluoromethoxy)pyridin-2-amine]
- Kd (human DLK [1]): 0.026 µM
- IC50 (human DLK [2]): 0.994 µM

Compound: Nc1ncc(-c2cn([C@H]3[C@@H]4CC(N5CCCOCC5)C[C@@H]43)c(C3CC3)n2)cc1OC(F)(F)F (some centres unmarked) [Example 136, 5-(1-(3-(1,4-oxazepan-4-yl)bicyclo[3.1.0]hexan-6-yl)-2-cyclopropyl-1H-imidazol-4-yl)-3-(trifluoromethoxy)pyridin-2-amine]
- Kd (human DLK [1]): 0.02 µM
- IC50 (human DLK [2]): 0.662 µM

Compound: CC(C)c1nc(-c2cnc(N)c(C(F)(F)F)c2)cn1[C@H]1[C@@H]2CC(N3CCN(C)CC3)C[C@@H]21 (some centres unmarked) [Example 132, 5-(2-isopropyl-1-(3-(4-methylpiperazin-1-yl)bicyclo[3.1.0]hexan-6-yl)-1H-imidazol-4-yl)-3-(trifluoromethyl)pyridin-2-amine]
- Kd (human DLK [1]): 0.022 µM
- IC50 (human DLK [2]): 0.909 µM

Compound: CC(C)c1nc(-c2cnc(N)c(C(F)(F)F)c2)cn1[C@H]1[C@@H]2CC(N3CCCOCC3)C[C@@H]21 (some centres unmarked) [Example 130, 5-(1-(3-(1,4-oxazepan-4-yl)bicyclo[3.1.0]hexan-6-yl)-2-isopropyl-1H-imidazol-4-yl)-3-(trifluoromethyl)pyridin-2-amine]
- Kd (human DLK [1]): 0.025 µM
- IC50 (human DLK [2]): 1.76 µM

Compound: Nc1ncc(-c2cn([C@H]3[C@@H]4CN(C5CCOCC5)C[C@@H]43)c(C3CC3)n2)cc1C(F)(F)F [Example 74, 5-(2-cyclopropyl-1-((1R,5S,6s)-3-(tetrahydro-2H-pyran-4-yl)-3-azabicyclo[3.1.0]hexan-6-yl)-1H-imidazol-4-yl)-3-(trifluoromethyl)pyridin-2-amine]
- Kd (human DLK [1]): 0.054 µM
- IC50 (human DLK [2]): 1.35 µM

Compound: Nc1ncc(-c2cn([C@H]3[C@@H]4CN(C5CCOCC5)C[C@@H]43)c(CC(F)(F)F)n2)cc1C(F)(F)F [Example 119, 5-(1-((1R,5S,6s)-3-(tetrahydro-2H-pyran-4-yl)-3-azabicyclo[3.1.0]hexan-6-yl)-2-(2,2,2-trifluoroethyl)-1H-imidazol-4-yl)-3-(trifluoromethyl)pyridin-2-amine]
- Kd (human DLK [1]): 0.071 µM
- IC50 (human DLK [2]): 1.85 µM

Compound: Nc1ncc(-c2cn([C@H]3[C@@H]4CN(CCF)C[C@@H]43)c(CC3CC3)n2)cc1OC(F)F [Example 116, 5-(2-(cyclopropylmethyl)-1-((1R,5S,6s)-3-(2-fluoroethyl)-3-azabicyclo[3.1.0]hexan-6-yl)-1H-imidazol-4-yl)-3-(difluoromethoxy)pyridin-2-amine]
- Kd (human DLK [1]): 0.053 µM
- IC50 (human DLK [2]): 1.44 µM

Compound: CC(C)c1nc(-c2cnc(N)c(C(F)(F)F)c2)cn1[C@H]1[C@@H]2CC(N3CCOC[C@@H]3C)C[C@@H]21 (stereo partly drawn) [Example 131, 5-(2-isopropyl-1-(3-((S)-3-methylmorpholino)bicyclo[3.1.0]hexan-6-yl)-1H-imidazol-4-yl)-3-(trifluoromethyl)pyridin-2-amine]
- Kd (human DLK [1]): 0.034 µM
- IC50 (human DLK [2]): 1.39 µM

Compound: CC(C)c1nc(-c2cnc(N)c(C(F)(F)F)c2)cn1[C@H]1[C@@H]2CC(N3CCCOCC3)C[C@@H]21 (some centres unmarked) [Example 142, 5-(1-(3-(1,4-oxazepan-4-yl)bicyclo[3.1.0]hexan-6-yl)-2-isopropyl-1H-imidazol-4-yl)-3-(trifluoromethyl)pyridin-2-amine]
- Kd (human DLK [1]): 0.0094 µM
- IC50 (human DLK [2]): 0.934 µM

Compound: CCC(O)c1nc(-c2cnc(N)c(C(F)(F)F)c2)cn1C1CCC1 (centres unmarked) [Example 22, 1-(4-(6-amino-5-(trifluoromethyl)pyridin-3-yl)-1-cyclobutyl-1H-imidazol-2-yl)propan-1-ol]
- Kd (human DLK [1]): 0.018 µM
- IC50 (human DLK [2]): 0.55 µM

Compound: Nc1ncc(-c2cn([C@H]3[C@@H]4CN(C5COC5)C[C@@H]43)c(C3CC3)n2)cc1C(F)(F)F [Example 73, 5-(2-cyclopropyl-1-((1R,5S,6s)-3-(oxetan-3-yl)-3-azabicyclo[3.1.0]hexan-6-yl)-1H-imidazol-4-yl)-3-(trifluoromethyl)pyridin-2-amine]
- Kd (human DLK [1]): 0.056 µM
- IC50 (human DLK [2]): 1.2 µM

Reference: patent US20180057507A1, “INHIBITORS OF DUAL LEUCINE ZIPPER (DLK) KINASE FOR THE TREATMENT OF DISEASE” (Board of Regents, The University of Texas System, priority 2016, published 2018)
